# Measured values: US6479502B1, “Hydroxamic acid derivatives as proteinase inhibitors” (British Biotech Pharmaceuticals, priority 1998, dated 2002)
# Experiments:
# collagenase-3 (MMP-13) = collagenase-3 (MMP-13) (Homo sapiens, UniProt P45452); assay: Inhibition of collagenase-3 (MMP-13); format: biochemical; details: statement in words, no value given
# Experimental: The potency of compounds of the invention as inhibitors of collagenase may be determined by the procedure of Cawston and Barrett, (Anal. Biochem., 99, 340-345, 1979), whereby a 1mM solution of the compound being tested, or a dilution thereof, is incubated at 37° for 16 hours with collagen and collagenase (buffered with 25mM Hepes, pH 7.5 containing 5mM CaCl2, 0.05% Brij 35 and 0.02% NaN3). The collagen is acetylated ^14C collagen prepared by the method of Cawston and Murphy, (Methods in Enzymology, 80, 711, 1981). The samples are centrifuged to sediment undigested collagen, and an aliquot of the radioactive supernatant removed for assay on a scintillation counter as a measure of hydrolysis. The collagenase activity in the presence of 1mM of the test compound, or a dilution thereof, is compared to activity in a control devoid of inhibitor and the result reported as that of inhibitor concentration effecting 50% inhibition of the collagenase activity (IC50). The potency of compounds of the invention as inhibitors of stromelysin may be determined by the procedure of Cawston et al, (Biochem. J., 195, 159-165, 1981), whereby a 1mM solution of the compound being tested, or a dilution thereof, is incubated at 37° for 16 hours with stromelysin and ^14C acetylate casein (buffered with 25mM Hepes, pH 7.5 containing 5mM CaCl2, 0.05% Brij 35 and 0.02% NaN3). […]
# gelatinase A = target: T1, gelatinase A (Homo sapiens, UniProt P08253); assay: Inhibition of gelatinase A (72 kDa gelatinase); format: biochemical; details: statement in words, no value given
# T1 construct: endogenous in cells; host or cells: RPMI-7951 cells (endogenous enzyme, purified by gelatin-agarose chromatography)
# T1 sequence (P08253 110-660): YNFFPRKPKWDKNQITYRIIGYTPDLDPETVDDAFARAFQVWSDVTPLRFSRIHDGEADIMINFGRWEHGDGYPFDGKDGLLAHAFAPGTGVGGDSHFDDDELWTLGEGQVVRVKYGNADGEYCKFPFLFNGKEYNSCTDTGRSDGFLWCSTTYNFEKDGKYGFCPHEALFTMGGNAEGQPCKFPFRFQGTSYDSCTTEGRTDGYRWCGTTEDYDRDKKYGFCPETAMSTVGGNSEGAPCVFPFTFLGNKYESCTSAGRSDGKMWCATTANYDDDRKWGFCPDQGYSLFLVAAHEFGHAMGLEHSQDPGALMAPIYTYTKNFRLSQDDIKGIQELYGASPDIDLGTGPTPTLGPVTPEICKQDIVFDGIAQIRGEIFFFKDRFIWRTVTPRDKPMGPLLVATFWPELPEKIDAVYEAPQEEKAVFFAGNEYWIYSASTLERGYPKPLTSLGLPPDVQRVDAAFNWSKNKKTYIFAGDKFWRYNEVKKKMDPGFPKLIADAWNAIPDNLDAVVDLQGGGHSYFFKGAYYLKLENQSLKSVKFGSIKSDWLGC
# Experimental: The potency of compounds of the invention as inhibitors of 72 kDa gelatinase may be determined by a procedure based on the method of Sellers et. al, Biochem. J., 171, 493-496 (1979). 72 kDa gelatinase, derived from RPMI-7951 cells is purified by gelatin-agarose chromatography. The enzyme is activated by incubation with aminophenyl mercuric acetate and approximately 0.05 units is incubated with 50μg [^14C]-radiolabellet gelatin in an appropriate buffer for 16 hours at 37° C. At the end of the incubation 50μg bovine serum albumin, together with trichloroacetic acid (final concentration 16%) are added to stop the reaction and to precipitate any undegraded substrate. The reaction tubes are placed on ice for 15 minutes before centrifugation at 10,000g for 15 minutes to sediment the precipitated substrate. A 200μl aliquot of the reaction supernatant is removed and the radioactivity determined by liquid scintillation counting. The effect of the inhibitors is determined by reference to a dose response curve. The IC50 (the concentration of inhibitor required to cause a 50% decrease in enzyme activity) is obtained by fitting a curve to the data and computing the concentration of inhibitor required to achieve 50% inhibition of the enzyme. For each IC50 determination, the effect on gelatinase activity of at least 8 concentrations of the inhibitor are examined. […]
Compound,inhibitor of collagenase-3 (MMP-13) (collagenase-3 (MMP-13)),inhibitor of gelatinase A (gelatinase A)
"O=C(CC(Cc1ccccc1)S(=O)(=O)N1CCC(COc2ccc(F)cc2)CC1)NO (centres unmarked) [Example 6, 3-[4-(4-Fluoro-phenoxymethyl)-piperidine-1-sulfonyl]-N-hydroxy-4-phenyl-butyramide]",inhibitor of collagenase-3 (MMP-13),–
"O=C(CC(Cc1ccccc1)S(=O)(=O)N1CCC(Cc2ccccc2)CC1)NO (centres unmarked) [Example 2, 3-(4-Benzyl-piperidine-1-sulfonyl)-N-Hydroxy-4-phenyl-butyramide]",–,inhibitor of gelatinase A
